Experimental data taken from paper PMC4648443, “Protein evolution analysis of S-hydroxynitrile lyase by complete sequence design utilizing the INTMSAlign software” (Scientific Reports, 2015).
Like-named read-outs stand apart in the source and are kept apart here.

Columns and labels:
HNL54 = test system: T1, HNL54; test: benzaldehyde formation at […] nm; format: biochemical, synthetic construct; conditions: 100 mM citrate pH 5.5, 30 °C
T1 construct: synthetic gene in pET28b (NdeI/XhoI), E. coli BL21(DE3), Ni-Sepharose and gel filtration

HNL30 = test system: T2, HNL30; test: benzaldehyde formation at […] nm; format: biochemical, synthetic construct; conditions: 100 mM citrate pH 5.5, 30 °C
T2 construct: pET28b (NdeI/XhoI), E. coli BL21(DE3), Ni-Sepharose and gel filtration

Compound | Km (HNL54; read-out: Km /) [µM] | Km (HNL30; read-out: Km /) [µM] | Km (HNL54; read-out: HNL54 / Km) [µM] | Km (HNL30; read-out: HNL30 / Km) [µM]
N#CC(O)c1ccccc1 (racemic) [rac-Man] | 3200 ± 300 | 800 ± 100 |  | 
N#C[C@H](O)c1ccccc1 [(R)-Man] |  |  | 370 | 5000
N#C[C@@H](O)c1ccccc1 [(S)-Man] |  |  | 610 | 400
